Values quoted from earlier work, collected in paper PMC4718634, “Murine GPRC6A Mediates Cellular Responses to L-Amino Acids, but Not Osteocalcin Variants” (PLoS ONE, 2016).

Test system: pancreatic islets
Settings: GPRC6A-dependent; ref [31]; cited from earlier work
Excerpt: Given the range of OCN variants profiled, we propose that species and/or carboxylation status is unlikely to be a cause of the lack of activity in our assays. Other potential explanations are that the species of GPRC6A is critical or that HEK293 cells lack the necessary scaffolding and/or signalling proteins found in cells endogenously expressing GPRC6A. Unfortunately, human GPRC6A was not expressed at the cell surface in our cells, precluding a study of its pharmacology. However, we identified a range of immortalised murine entero-endocrine and pancreatic β-cell lines that express Gprc6a mRNA ...

OCN: osteoblast-derived peptide, osteocalcin; variant not specified at the place (YLYQWLGAPVPYPDPLEPRREVCELNPDCDELADHIGFQEAYRRFYGPV; UniProt P02818 52-100, looked up)
insulin secretion: increase insulin secretion from pancreatic islets
